Measurements: patent US8183206B2, “Drugs comprising combination of antithrombotic agent with pyrazolone derivative” (Mitsubishi Tanabe Pharma Corporation, priority 2001, dated 2012)

How the values were obtained:
[1] = system: patients diagnosed as cerebral infarction; experiment: Function prognosis by modified ranking scale in cerebral infarction patients (Example 2); type: in vivo, human; details: on leaving hospital within 1 month after start of administration
Procedure: Administration amount and method are shown below.
Sodium ozagrel: 80 mg of sodium ozagrel was dissolved in an adequate amount of an electrolyte solution or carbohydrate solution and the resulting solution was intravenously administered constantly for 2 weeks, twice daily, that is, in the morning and evening, each over 2 hours.
(§1) Argatroban: For the first two days, 60 mg/120 ml of argatroban was diluted with an adequate amount of a transfusion fluid and the resulting solution was intravenously infused constantly over 24 hours. For the following 5 days, 10 mg/20 ml of argatroban was diluted with an adequate amount of a transfusion fluid and the resulting solution was intravenously infused twice daily, that is, in the morning and evening, each over 3 hours.
Sodium ozagrel+edaravone: 80 mg of sodium ozagrel was dissolved in an adequate amount of an electrolyte solution or carbohydrate solution and the resulting solution was intravenously administered constantly for 2 weeks, twice daily, that is, in the morning and evening, each over 2 hours. At the same time, 30 mg/20 ml of edaravone was diluted with an adequate amount of physiological saline and the resulting solution was intravenously infused for 2 weeks, twice daily, that is, in the morning and evening, each over 20 minutes.
as §1, with “Argatroban+edaravone: For” for “Argatroban: For”, “3 hours; and at the same time, 30 mg/20 ml of edaravone was diluted with an adequate amount of physiological saline and the resulting solution was intravenously infused for 2 weeks twice daily, that is, in the morning and evening, each over 30 minutes.” for “3 hours.”
In the above-described table, what the meaning of grade will be explained briefly. Grade 0: no symptoms, Grade 1: some symptoms but non-significant disability (able to carry out all daily activities and affairs), Grade 2: slight disability (unable to carry out all previous activities but able to look after own affairs without assistance), Grade 3: moderate disability (requiring some help, but able to walk without assistance), Grade 4: relatively severe disability (requiring assistance for walk or daily activities), Grade 5: very severe disability (bedridden, incontinence and requiring constant nursing care and attention), Grade 6: death.

[2] = system: patients in the acute stage of cerebral infarction; details: edaravone 30 mg i.v. twice daily for 14 days; evaluated three months after initiation or upon discharge within three months; cited from earlier work
[3] = system: patients in the acute stage of cerebral infarction; experiment: Comparative Example: edaravone alone, modified ranking scale, patients in the acute stage of cerebral infarction; type: in vivo, human; details: edaravone used alone, within three months, from cited data
Procedure: Evaluation results of edaravone, when administered alone, in accordance with the modified ranking scale are included in Therapeutic Research, Vol. 19(4), 1333-1345, 1998.
Evaluation method and results: Edaravone (30 mg/20 ml) diluted with 100 ml of physiological saline was intravenously infused to 8 patients in the acute stage of cerebral infarction constantly for 14 days twice daily (morning and evening), each over 30 minutes. During the administration term of this medicament, administration of another medicament which might have an influence on the drug efficacy evaluation was avoided. Evaluation was made in accordance with the modified ranking scale three months after the initiation of the administration or upon discharge of the patient from the hospital within three months after the initiation of administration.

Wistar rat = experiment: Influence of t-PA on the bleeding time (tail transection, anesthetized rats); type: in vivo; details: for Bleeding time: urethane anesthesia, t-PA 1 mg/kg constant i.v. infusion, edaravone 3 mg/kg i.v. 5 min before tail transection, average ± S.E., measured up to 30 min
Procedure: Via a cannula inserted into the femoral vein of each Wistar rat anesthetized with urethane (1.2 g/kg, i.p.), 1 mg/kg (1 mg=580000 IU; 4 mL/kg, 1 mL/hr) of physiological saline or t-PA was constantly infused. Fifty five minutes after the constant fusion was started, 3 mg of edaravone (3-methyl-1-phenyl-2-pyrazolin-5-one) or physiological saline was administered intravenously. Five minutes after that, the tail was transected at 2 mm from its tip immediately by using a razor. Every 15 seconds, the blood from the tail was blotted with a filter paper and the time until bleeding ceased was measured for up to 30 minutes.

Compound	Number of patients in Grade 0 (no symptoms), modified ranking scale [1]	Number of patients in Grade 1 (some symptoms but non-significant disability), modified ranking scale [1]	Number of patients in Grade 2 (slight disability), modified ranking scale [1]	Number of patients in Grade 3 (moderate disability), modified ranking scale [1]	Number of patients in Grade 4 (relatively severe disability), modified ranking scale [1]	Number of patients in Grade 5 (very severe disability), modified ranking scale [1]	Number of patients in Grade 6 (death), modified ranking scale [1]	Number of patients in Grade 0, modified ranking scale [2]	Number of patients in Grade 1 (some symptoms but non-significant disability), modified ranking scale [2]	Number of patients in Grade 2 (slight disability), modified ranking scale [2]	Number of patients in Grade 3, modified ranking scale [2]	Number of patients in Grade 4 (relatively severe disability), modified ranking scale [2]	Number of patients in Grade 5, modified ranking scale [2]	Number of patients in Grade 6, modified ranking scale [2]	Ratio of Grade 0 [3] [%]	Bleeding time (Wistar rat) [min]	Influence on bleeding time compared with the control group (physiological saline) (Wistar rat; t-PA 1 mg/kg, result in words)
CC1CNc2c(cccc2S(=O)(=O)N[C@@H](CCCNC(=N)N)C(=O)N2CC[C@@H](C)C[C@@H]2C(=O)O)C1 (mixture of isomers) [NOV, (2R, 4R)4-methyl-1-[N^2-((RS)-3-methyl-1,2,3,4-tetrahydro-8-quinolinesulfonyl)-L-arginyl]-2-piperidinecarboxylic acid monohydrate]	1	1	2	1	0	3	0										
CC1=NN(c2ccccc2)C(=O)C1 [Edaravone, 3-methyl-1-phenyl-2-pyrazolin-5-one]								0	2	3	0	3	0	0	0	11.55 ± 2.31	
O=C([O-])/C=C/c1ccc(Cn2ccnc2)cc1.[Na+] [OZA]	5	2	1	1	0	0	0										
t-PA: tissue plasminogen activator, thrombolytic agent; GRTPA (Mitsubishi Pharma Corporation) can be used																17.70 ± 2.85	prolonged the bleeding time significantly
